# From EP0071175A2, “Phenylalkyloxirane-carboxylic acids, process for their preparation, their use and medicines containing them” (Byk Gulden Lomberg Chemische Fabrik GmbH, priority 1981, dated 1983)
# Legend:
# [1] = tested on: nüchterner, stoffwechselgesunder Ratten; assay: Blood glucose determination after single oral application; format: in vivo, Sprague-Dawley-Ratten; conditions: maximal lowering vs. control group within 6 hours after single oral application of 0,6 mmol substance/kg body weight; fasted male rats
# From the text: (§1) In Tabelle I werden Untersuchungen des Einflusses von Vertretern der erfindungsgemäßen Verbindungen auf die Blutglucosekonzentration nüchterner, stoffwechselgesunder Ratten wiedergegeben. Spalte A gibt jeweils die maximale Senkung der Blutglucosekonzentration nüchterner Ratten (in % bezogen auf die Kontrollgruppe) an, die im Laufe von 6 Stunden nach einmaliger oraler Applikation von 0,6 mmöl Substanz/kg Körpergewicht be-, obachtet wird. In der Spalte B werden Daten zur akuten Toxizität (LD50; Maus p.o.) wiedergegeben.
# 1. Blutglucosebestimmung nach einmaliger oraler Applikation
# Zur Verwendung kommen junge männliche Sprague-Dawley-Ratten (Körpergewicht 150-200 g). Die Haltung der Tiere (6 Tiere pro Dosis) erfolgt in Makrolon-Käfigen mit bis zu 4 Tieren pro Käfig (Raumtemperatur 23 °C, rel. Luftfeuchtigkeit 55 %, fester Tag/Nacht-Rythmus (12/12=h) Standarddiät Altromin®). Den Ratten wird 18 Stunden vor der 1. Blutentnahme das Futter entzogen. Wasseraufnahme erfolgt ad libitum. Blutentnahmen erfolgen unmittelbar vor und 2, 4 und 6 Stunden nach Substanzgabe durch Punktion aus dem retroorbitalen Plexus. Nach Enteiweißung mit Perchlorsäure wird die Blutglucosebestimmung mittels der bei Banauch et.al. [J.Clin.Chem.Clin.Biochem. 13, 101(1975)] beschriebener Glucose-Dehydrogenase-Methode mit Hilfe von kommerziellen Reagentien durchgeführt. Zum Vergleich wird jeweils eine mit reinem Lösungsmittel behandelte Kontrollgruppe mituntersucht (10 Tiere pro Kontrollgruppe).
# in vivo = conditions: mouse, po, read-out: Akute Toxizität Maus p.o. LD50
# From the text: as §1
# 2. Bestimmung der Toxizität .
# Die Toxizitätsuntersuchungen werden an weiblichen NMRI-Mäusen (Körpergewicht 22-26 g) durchgeführt. Die Tiere (5 Tiere pro Dosis) erhalten 18 Stunden vor der Behandlung das Futter (Altromin®) auf 50 g/50 Tiere reduziert und Wasser ad libitum. Verschiedene Dosen der Substanzen werden oral mittels Schlundsonde verabreicht (Volumen 10 ml/kg). Die Beobachtungsdauer beträgt 7 Tage.
compound,measurement,setting,value
"CCOC(=O)C1(CC(CC)CCCc2ccccc2)CO1 (stereo not shown) [compound 4, 2-(2-Ethyl-5-phenylpentyl)-oxiran-2-carbonsäureethylester]",Senkung der Blut-glucosekonzentration (in %) in vivo,[1],25%
"CCOC(=O)C1(CCCC(C)Cc2ccccc2)CO1 (stereo not shown) [compound 3, 2-(4-Methyl-5-phenylpentyl)-oxiran-2-carbonsäureethylester]",LD50,in vivo,> 1000 mg/kg
same,Senkung der Blut-glucosekonzentration (in %) in vivo,[1],45%
"CCOC(=O)C1(CCCCC(C)c2ccccc2)CO1 (stereo not shown) [compound 7, 2-(5-Methyl-5-phenylpentyl)-oxiran-2-carbonsäureethylester]",Senkung der Blut-glucosekonzentration (in %) in vivo,[1],22%
"CCOC(=O)C1(CCCC(C)CCCc2ccccc2)CO1 (stereo not shown) [compound 6, 2-(4-Methyl-7-phenylheptyl)-oxiran-2-carbonsäureethylester]",LD50,in vivo,> 500 mg/kg
same,Senkung der Blut-glucosekonzentration (in %) in vivo,[1],35%
"CCCCNC(=N)NC(=N)N [compound 1, Buformin, reference compound]",Senkung der Blut-glucosekonzentration (in %) in vivo,[1],8%
"[H]/N=C(/N)N/C(=N/[H])NCCc1ccccc1 [compound 2, Phenformin, reference compound]",Senkung der Blut-glucosekonzentration (in %) in vivo,[1],6%
"CCOC(=O)C1(CCCC(C)Cc2ccc(Cl)cc2)CO1 (stereo not shown) [compound 5, 2-[5-(4-Chlorphenyl)-4-methylpentyl]-oxiran-2-carbonsäure-ethylester]",LD50,in vivo,~500 mg/kg
same,Senkung der Blut-glucosekonzentration (in %) in vivo,[1],70%
